In US20060084599A1, “Compositions, methods and kits relating to notch signaling” (Maine Medical Center, priority 2003, published 2006):

What was measured:
[1] = test system: NIH 3T3 stable transfectants; test: FGF1 release in stable NIH 3T3 cell transfectants (Example 1); assay type: cell-based, murine; conditions: sJ1 stable transfectants transduced with FGF1 adenovirus, 37° C.
Protocol: Adenovirus vector expressing lacZ, FGF1, caN1, dnN1, caN2 or dnN2 was prepared as described (Hardy et al., 1997, J. Virol. 71: 1842-1849) at a titer of approximately 10^12 viral particles/ml. For adenoviral transduction, NIH 3T3 stable transfectants were incubated in serum-free medium with approximately […] viral particles/cell in the presence of poly-D-lysine hydrobromide (Sigma) (5×10^3 molecules/viral particle) for two hours at 37° C., after which the adenovirus-containing media was removed and replaced with serum-containing medium (10% BCS) for an additional 24 hours. The transduced cells were harvested by trypsin digestion and seeded for the heat shock experiments as previously described (Jackson et al., 1992, Proc. Natl. Acad. Sci. USA 89: 10691-10695). After heat shock, the conditioned media from cells exposed to either 37° C. (normal conditions) or 42° C. (heat shock conditions) were treated with 0.1% DTT for 2 hours at 37° C., adsorbed to heparin-Sepharose and eluted from the column with 1.5 M NaCl. The eluants were resolved by 15% (w/v) SDS-PAGE and evaluated by FGF1 immunoblot analysis as described (Jackson et al., 1992, Proc. Natl. Acad. Sci. USA 89: 10691-10695).

FGF1.A promoter = FGF1.A promoter luciferase reporter; assay type: cell-based, murine; conditions: sJ1 NIH 3T3 cell transfectants versus insert-less vector
Protocol: In order to confirm the sJ1-dependent function of the FGF1.A promoter, the corresponding 1.8 Kbp region (Madiai et al., 1999, J. Biol. Chem. 274:11937-11944) was cloned into a promoter-less firefly luciferase reporter vector and FGF1.A-driven firefly luciferase activity was evaluated in both insert-less vector and sJ1 NIH 3T3 cell transfectants.

FGF1 transcript = test: Nuclear run-on analysis of FGF1 transcription; assay type: cell-based, murine
Protocol: Approximately either 1×10^7 Swiss or NIH 3T3 cells were harvested and washed using ice-cold 50 mM sodium phosphate buffer, pH 7.0 containing 15 mM NaCl. Cell pellets were lysed in 4 ml of ice-cold 10 mM Tris-HCl, pH 7.5, containing 3 mM CaCl2, 3 mM MgCl2, 10 mM NaCl, and 0.5 % NP-40. The nuclear pellet was resuspended in glycerol storage buffer (50 mM Tris-HCl, pH 8.3 containing 40% glycerol, 5 mM MgCl2 and 0.1 mM EDTA), the nuclei were snap frozen, and stored in liquid nitrogen. For run-on transcription, 200 μl aliquots of the frozen nuclei were added to 200 μl of reaction buffer (10 mM Tris-HCl, pH 8.3 containing 5 mM MgCl2, 300 mM KCl, 5 mM DTT, 1 mM each of ATP, CTP, and GTP, 40 units of RNase inhibitor and 100 μCi of [^32P]UTP (800 Ci/mmol; Amersham), and incubated at 30° C. for 30 minutes. The mixture was treated with 100 units of RNase-free DNase I for 30 minutes at 30° C. and then incubated with 400 μl of 20 mM Tris-HCl, pH 7.5, containing 2% SDS, 10 mM EDTA, […] proteinase K for 30 minutes at 42° C. Following phenol/CHCl3 extraction, the labelled transcripts were precipitated with isopropanol and dissolved in 50 μl of 10 mM TES, pH 7.5, containing 10 mM EDTA and 0.2% SDS. Linearized plasmid constructs (0.4 μg/dot) containing either the fgf1 or gapdh cDNA were alkali denatured and immobilized onto a Hybond-N^+ membrane (Amersham). Hybridization was performed in 1 ml of ULTRA Hyb (Ambion), with 5×10^6 cpm of radiolabeled RNA and yeast RNA (10 μg/ml) for 18 hours with shaking at 50° C. Membranes were washed twice with washing buffer (2×SSC containing 0.1% SDS) at 50° C. and analyzed using a phosphoimager (Molecular Dynamics).

human Jagged1 [2] = molecular target: T1, human Jagged1 (Homo sapiens, UniProt P78504); test: Thrombin cleavage of in vitro translated Jagged1 and Edman microsequencing; assay type: biochemical; conditions: Edman chemistry of 95 kDa fragment
T1 construct: the full-length human Jagged1 transcript was in vitro translated; made in house; host or cells: cell-free: T7-coupled reticulocyte lysate system (Promega)
Protocol: (§1) A plasmid containing human Jagged1 (Zinrin et al., 1996, J. Biol. Chem. 271:32499-32502) was in vitro transcribed and in vitro translated in the presence of a (^35S)-Met/Cys protein-labeling mixture (Amersham) using the T7-coupled reticulocyte lysate system according to the manufacturer's instructions (Promega) in a total volume of 50 μl. After 60 minutes incubation at 30° C., 0.05% DTT was added, half of the reaction mixture incubated with 10 μg α-thrombin for 15 minutes at 37° C., and the reaction stopped by boiling in the presence of SDS-PAGE sample buffer. The samples were resolved by 12% SDS-PAGE, transferred to a nitrocellulose membrane, and analyzed by autoradiography. The bands corresponding to the thrombin cleavage products were excised and subjected to automated Edman microsequencing (Applied Bio Sciences). The products of each cycle were collected prior to resolution by HPLC, added to liquid scintillation fluid (Beckman) and the (^35S) samples quantitated by liquid scintillation spectroscopy (Beckman).

human Jagged1 [3] = molecular target: T2, human Jagged1 (Homo sapiens, UniProt P78504, A1171G); test: as above; assay type: biochemical; conditions: α-thrombin, 15 minutes at 37° C.
T2 construct: the full-length human Jagged1 transcript was in vitro translated; made in house; host or cells: cell-free: T7-coupled reticulocyte lysate system (Promega)
Protocol: as §1

T2 sequence (P78504 34-1218 A1171G): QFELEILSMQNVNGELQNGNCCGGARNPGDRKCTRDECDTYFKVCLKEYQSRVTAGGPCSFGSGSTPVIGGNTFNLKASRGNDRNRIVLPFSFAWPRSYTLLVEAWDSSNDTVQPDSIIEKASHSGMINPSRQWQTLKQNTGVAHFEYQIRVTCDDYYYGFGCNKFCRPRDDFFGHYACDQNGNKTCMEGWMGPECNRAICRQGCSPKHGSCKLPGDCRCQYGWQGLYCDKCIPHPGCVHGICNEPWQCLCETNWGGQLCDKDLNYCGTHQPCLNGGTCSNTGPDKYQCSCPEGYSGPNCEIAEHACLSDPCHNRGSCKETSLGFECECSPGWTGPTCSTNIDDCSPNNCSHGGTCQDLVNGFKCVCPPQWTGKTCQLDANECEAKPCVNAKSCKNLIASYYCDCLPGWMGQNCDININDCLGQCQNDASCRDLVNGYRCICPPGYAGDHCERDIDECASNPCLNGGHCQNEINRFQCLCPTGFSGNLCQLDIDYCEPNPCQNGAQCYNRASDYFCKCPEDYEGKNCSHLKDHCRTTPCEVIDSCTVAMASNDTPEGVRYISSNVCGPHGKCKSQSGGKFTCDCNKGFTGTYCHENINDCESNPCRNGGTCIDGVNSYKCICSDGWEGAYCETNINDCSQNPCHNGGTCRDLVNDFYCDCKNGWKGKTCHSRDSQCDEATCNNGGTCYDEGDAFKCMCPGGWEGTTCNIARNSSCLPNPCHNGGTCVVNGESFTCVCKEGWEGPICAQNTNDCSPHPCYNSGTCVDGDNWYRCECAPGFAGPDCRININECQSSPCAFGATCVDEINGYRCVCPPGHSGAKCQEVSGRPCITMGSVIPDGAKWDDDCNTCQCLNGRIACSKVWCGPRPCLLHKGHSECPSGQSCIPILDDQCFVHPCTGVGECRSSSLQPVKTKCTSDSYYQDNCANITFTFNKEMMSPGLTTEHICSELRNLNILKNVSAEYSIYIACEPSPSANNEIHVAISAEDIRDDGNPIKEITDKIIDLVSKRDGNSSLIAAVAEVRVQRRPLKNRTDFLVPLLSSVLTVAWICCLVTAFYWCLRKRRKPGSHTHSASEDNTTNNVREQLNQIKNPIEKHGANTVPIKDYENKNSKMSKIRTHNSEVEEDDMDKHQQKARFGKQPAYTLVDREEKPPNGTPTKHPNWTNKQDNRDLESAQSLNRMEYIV
T1 sequence (P78504 34-1218 A1171G): as above

Substance | FGF1 release under normal growth conditions [1] | FGF1.A-driven promoter activity (FGF1.A promoter) | induction of FGF1 transcript (FGF1 transcript; 10 μg/ml α-thrombin or 5 μM TRAP) | time at which FGF1 mRNA reached a plateau (FGF1 transcript; NIH 3T3 and Swiss 3T3 cells) | time at which FGF1 mRNA was initially detected (FGF1 transcript; NIH 3T3 and Swiss 3T3 cells) | Jagged1 cleavage site (human Jagged1 [2]) | cleavage of 134 kDa Jagged1 translation product (human Jagged1 [3])
sJ1: Soluble Jagged1, amino acid residues about 1 to 1067 (SEQ ID NO:3) of full-length human Jagged1 | significant release of FGF1 at 37 °C | significant increase in the FGF1.A-driven promoter activity |  |  |  |  | 
thrombin |  |  | able to induce the expression of the FGF1 transcript | 2 h | 15 min | between residues R348 and G349 | cleavage of the full-length Jagged1 protein into 39 kDa and 95 kDa fragments
